The test system of data set [1] is MV4-11 (human leukemia cell line). Kind of data set: Anti-proliferative activity test (CellTiter-Glo), MV4-11. The following applies: second value of LnCAP/MV4-11 cell, read-out: Cell proliferation IC50 (MV4-11). The data set is classed as cell-based. The procedure:
(§1) IC50 (uM) of the compounds obtained in Examples 1 to 18 against hematological cancer cells and solid tumors was measured for identifying anti-proliferative activities.
(§2) A human prostatic adenocarcinoma cell line, LnCAP (ATCC®, CRL-1740) and human leukemia cell line MV4-11 (ATCC®, CRL-9591) were used to test the degrees of the compounds 1 to 18 in inhibiting the cancer cell growth. The testing cell concentration was adjusted to 6.7×10^3 cells/ml with a culture medium supplemented with 10% FBS, in the temperature of 37° C., 5% CO2 and 95% humidity. Culture media and FBS were purchased from GIBCO. 90 μL of cell suspensions thus obtained was added to two 96-well plates with the final cell density of 600 cells/well, followed by addition of 10 μL of culture medium to each well of plate. The plates were incubated overnight in a humidified incubator at 37° C. with 5% CO2.
(§3) Compounds 1 to 18 were each dissolved with dimethylsulfoxide (DMSO) or phosphate buffer solution (PBS) as a stock solution, and 200× solutions of test compound (2 mM) using DMSO were prepared. Then, the DMSO solution thus obtained was diluted 20-fold with culture medium or PBS to obtain 10× working solution. 10 μL of 10× working solution (drug solution) was dispensed to each well (triplicate for each concentration). The final concentration of DMSO in culture medium was 0.5% [v/v].
(§4) Cell viability was determined using CellTiter-Glo® (CTG) assay. 100 μL of CellTiter-Glo® was added to the equal volume of the cultured cells to read luminescence in EnVision Multi Label Reader.
In general terms: Cellular ATP, detected with luciferase, serves as a proxy for viable cell number.

A short description of data set [2]: Human liver microsomal stability/clearance. The class given is in vitro ADME. The following applies: human liver microsomes; first value of Human/Mouse cell; read-out: Liver microsomal clearance (Human). The protocol: (§5) Human and mouse liver microsomal clearance assays were carried out in CROWN Biosciences (Taicang, China). The human liver microsomes (Cat No. X008067, Lot No. KQB) and mouse liver microsomes (Cat No. M1000, Lot No. 1210302) were purchased from Celsis and Xenotech, respectively.
(§6) 5 μL of test compound stock solution was diluted with 495 μL of 1:1 Methanol/Water (final concentration: 100 μM, 50% MeOH) and combined with 534 μL of the respective liver microsome solution (final concentration: 1.111 μM, 0.555% MeOH). The final concentration of the liver microsome solution was 0.7 mg protein/mL.
(§7) Incubations of the liver microsome solutions were performed in a 96 well plate at 37° C. 90 μL of the liver microsome solutions were added to Blank, and 90 μL of working solution of the test compound was added to all plates except the Blank.
(§8) All plates thus obtained were warmed in water bath at 37° C. for 10 min, and 10 μL of NADPH co-factor solution comprising 42 mg of β-nicotinamide adenine dinucleotide phosphate (Sigma Cat. No. N0505 Lot 020M7009V), 84 mg of isocitric acid (Sigma Cat. No. 11252 Lot 119K1099) and 0.478 mL of isocitric dehydrogenase (Sigma Cat. No. 12002 Lot 086K7055, 15 units/mg protein, warmed in water bath at 37° C. for 5 min was added to the plates. The resulting plates were incubated at 37° C. in the following order: T60 (The test compounds were incubated with the liver microsomal solution and NADPH for 60 min at 37° C.), T30 (such as for 30 min.), and T10 (such as for 10 min.). 300 μL of a cold (4° C.) stop solution (acetonitrile (ACN) including 500 nM of tolbutamide as internal standard) and 10 μL of NADPH co-factor solution to starting plate (T0: 100% of the parent compound without any reaction) were added to the plates. The reaction was stopped by adding 300 μL of the cold (4° C.) stop solution to the other plates in the following order: T10 first, then T30 and T60.
(§9) The samples were centrifuged at 4,000 rpm for 20 min and transferred to Bioanalytical Services for liquid chromatography-mass spectrometry (LC-MS)/MS (Waters UPLC/API 4000, 10 μL injection) analysis.
A general note: Liver microsomes are vesicles of endoplasmic reticulum, rich in cytochrome P450 enzymes.

Data set [3] concerns OPM-2 (multiple myeloma). The data set can be described thus: Anti-proliferative activity, OPM-2. The class given is cell-based. The following applies: Homo sapiens, read-out: Cell proliferation, IC50.
Data set [4] deals with A375 (malignant melanoma). The data set can be described thus: Anti-proliferative activity, A375. The data set is classed as cell-based. The settings on record: Homo sapiens, A-375, read-out: Cell proliferation, IC50.
Data set [5] in a line: Mouse liver microsomal stability/clearance. The class given is in vitro ADME. The following applies: mouse liver microsomes; second value of Human/Mouse cell; read-out: Liver microsomal clearance (Mouse). The protocol: as §5, §6, §7, §8, §9
Data set [6] relates to SK-LU-1 (adenocarcinoma). Kind of data set: Anti-proliferative activity, SK-LU-1. The class given is cell-based. The settings on record: Homo sapiens, SKLU-1 (Adenocarcinoma), read-out: Cell proliferation, IC50.
Data set [7] deals with LnCAP (human prostatic adenocarcinoma cell line). The data set can be described thus: Anti-proliferative activity test (CellTiter-Glo), LnCAP. The data set is classed as cell-based. The following applies: first value of LnCAP/MV4-11 cell, read-out: Cell proliferation IC50 (LnCAP). The procedure:
as §1, §2, §3, §4

Data set [8] concerns the target human BRD4 bromodomain 1 (Homo sapiens (Human), UniProt O60885). Kind of data set: Bromodomain binding assay (BRD4 Alpha-screen). The settings on record: acetylated histone H4 peptide. The protocol: Bromodomain binding assays were carried out in Reaction Biology (PA, USA) to test the degrees of the inventive compounds in inhibiting the human BRD4 bromodomain 1 by Alpha-screen assay method.
Recombinant human BRD4 bromodomain 1 expressed in E. coli with N-terminal His-tag was used as the enzyme target.
A synthetic peptide ([…]-GSGSK-biotin) containing 1 to 21th amino acids of histone H4 acetylated at lysine 5, 8, 12 and 16 and conjugated to biotin was purchased from Millipore.
BRD4-1 (44 to 170th amino acids; Genbank Accession # NM_058243) was expressed in E. coli with N-terminal His-tag (see, Ni-NTA spin Kit Handbook (Qiagen), second edition, January, 2008). Nickel-Chelate ALPHA acceptor beads (Perkin Elmer) were used to specifically bind BRD4-1, and ALPHA streptavidin donor beads (Perkin Elmer) were used because they specifically recognized the biotinylated H4 peptide.
BRD binding assays were performed in a mixture comprising 50 mM Hepes (pH7.5), 100 mM NaCl, 0.05% CHAPS, 0.1% BSA, and 1% DMSO. After an assay reaction time of 60 min at 25° C., binding was measured with streptavidin donor beads and nickel-chelate acceptor beads. ALPHA signal was detected on Enspire (Ex/Em=680/520-620 nm). IC50 values were calculated from the fit of the dose-response curves. All IC50 values represent geometric mean values of a minimum of four determinations. These assays generally produced results within 3-fold of the reported mean.
On the technique in general: Alpha assays give light when donor and acceptor beads are brought close together.

Data set [9] is described as follows: Animal pharmacokinetics in ICR mice. The class given is in vivo. The following applies: ICR, mouse, 10 mg/kg. The procedure:
Pharmacokinetics of the compounds of 1, 2, 7, 8 11 and 15 were evaluated in ICR mice (6˜8 weeks, 20˜25 g) following intravenous (IV) administration at 10 mg/kg and per oral (PO) administration at 10 mg/kg dose level, respectively. Especially, the additional dose level of Compound 1 was 30 mg/kg.
For serum compound analysis, blood samples were collected by cardiac puncture over 24 hr time course. 20 μL of spiked plasma was added into a 96-well plate, adding ten volumes of internal standard (IS) in acetonitrile (ACN) to the obtained precipitated protein mixed thoroughly, centrifuged at 4,000 rpm for 10 min. 150 μL of supernatant thus obtained was transferred to another pre-labeled 96-well plate, mixed with 150 μL of water. 5 μL or 10 μL of the mixture was injected into the LC-MS system under the following conditions:
Column: API-4000+Waters UPLC (TCLM08);
Lower limit of quantification (LLOQ) was at 1 ng/mL. Pharmacokinetic parameters of half-life (T1/2), clearance (CL), maximum plasma concentration (Cmax), mean residence time (MRT) and bioavailability (F %), plasma exposure (AUC) of the compound were calculated using Phoenix WinNonlin 6.3 (non-compartmental model).

Consider five compounds from patent US9884874B2, “Bromodomain-inhibiting compounds and pharmaceutical composition comprising same for preventing or treating a cancer” (KAINOS MEDICINE, INC., priority 2014, dated 2018).

With `CCS(=O)(=O)OC[C@@H]1N=C(c2ccc(Cl)cc2)c2cc(OC)ccc2-n2c(C)nnc21` [Compound 2, (R)-(6-(4-chlorophenyl)-8-methoxy-1-methyl-4H-benzo[f][1,2,4]triazolo[4,3-a][1,4]diazepin-4-yl)methyl ethanesulfonate], the IC50 in [1] worked out at 0.41 µM; in data set [3], 0.65 µM; in data set [4], 9.3 µM; in data set [6], 1.45 µM; in [7], 0.6 µM; in data set [8], 0.22 µM. The microsomal CLint at 1 µM in data set [2] is 1.9 µL/min/mg; in data set [5] it was 8.1 µL/min/mg. Also, the area under the curve (AUC) in data set [9] (in vivo, IV) came to 73 µM·h; in [9] (in vivo, PO), 66 µM·h. In addition, the MRT turned out to be 3.9 h in data set [9] (in vivo, IV) and 4.1 h in data set [9] (in vivo, PO). The same compound registered a clearance in [9] (in vivo, IV) of 4.9 mL/min/kg. Moreover, the bioavailability in [9] (in vivo, PO) was 89.8%.
Consider `Cc1nnc2n1-c1ccc(-c3cnn(C)c3)cc1C(c1ccc(Cl)cc1)=N[C@H]2COS(C)(=O)=O` [Compound 11, (R)-(6-(4-chlorophenyl)-1-methyl-8-(1-methyl-1H-pyrazol-4-yl)-4H-benzo[f][1,2,4]triazolo[4,3-a][1,4]diazepin-4-yl)methyl methanesulfonate], for which the IC50 in data set [1] worked out at 0.32 µM; in data set [7] it was 0.19 µM; in data set [8], 0.087 µM. Further, the microsomal CLint at 1 µM in data set [2] and in data set [5] was 8.6 µL/min/mg throughout. In addition, the AUC is 20 µM·h in [9] (in vivo, IV) and 11.7 µM·h in [9] (in vivo, PO). In addition, the clearance in data set [9] (in vivo, IV) came out at 16.8 mL/min/kg. In addition, in data set [9] (in vivo, PO), the bioavailability was 58.4%.
Take `COc1ccc2c(c1)C(c1ccc(C#N)cc1)=N[C@@H](COS(C)(=O)=O)c1nnc(C)n1-2` [Compound 7, (R)-(6-(4-cyanophenyl)-8-methoxy-1-methyl-4H-benzo[f][1,2,4]triazolo[4,3-a][1,4]diazepin-4-yl)methyl methanesulfonate]: the IC50 in data set [1] is 3.34 µM; in data set [7], 0.83 µM; in [8] it was 0.23 µM. The microsomal CLint at 1 µM in data set [2] was determined as 2.1 µL/min/mg; in [5], 3.4 µL/min/mg. Further, the AUC in data set [9] (in vivo, IV) is 17.3 µM·h; in data set [9] (in vivo, PO), 8.19 µM·h. In [9] (in vivo, IV), the clearance is 22.5 mL/min/kg. Also, the bioavailability in data set [9] (in vivo, PO) came to 47.4%.
Consider `COc1ccc2c(c1)C(c1ccc(Cl)cc1)=N[C@@H](COS(N)(=O)=O)c1nnc(C)n1-2` [Compound 8, (R)-(6-(4-chlorophenyl)-8-methoxy-1-methyl-4H-benzo[f][1,2,4]triazolo[4,3-a][1,4]diazepin-4-yl)methyl sulfamate], for which the values for the IC50 in [1], in data set [7] and in [8] were 1.49 µM, 0.96 µM and 0.22 µM, respectively. The microsomal CLint at 1 µM in [2] and in data set [5] was 5 µL/min/mg in each case. Further, the exposure (AUC) came to 41 µM·h in data set [9] (in vivo, IV) and 31.5 µM·h in data set [9] (in vivo, PO). Also, the clearance in data set [9] (in vivo, IV) turned out to be 9 mL/min/kg. The bioavailability in data set [9] (in vivo, PO) stood at 62.3%.
As to `Cc1sc2c(c1C)C(c1ccc(Cl)cc1)=N[C@@H](COS(C)(=O)=O)c1nnc(C)n1-2` [Compound 15, (R)-(4-(4-chlorophenyl)-2,3,9-trimethyl-6H-thieno[3,2-f][1,2,4]triazolo[4,3-a][1,4]diazepin-6-yl)methyl methanesulfonate], the IC50 is 0.5 µM in data set [1], 0.48 µM in data set [7] and 0.1 µM in data set [8]. The values for the microsomal CLint at 1 µM in data set [2] and in data set [5] were 20 µL/min/mg and 22 µL/min/mg, respectively. The AUC in data set [9] (plasma, IV) was 27 µM·h; in data set [9] (plasma, PO) it was 31 µM·h. Moreover, the mean residence time (MRT) was 1.9 h in [9] (plasma, IV) and 2.5 h in data set [9] (plasma, PO). The compound further came in with a clearance in [9] (plasma, IV) of 13.5 mL/min/kg. Besides, the bioavailability in data set [9] (plasma, PO) came out at 105%.

One may read the AUC as the area under the concentration-time curve, a measure of exposure. Low values mean low exposure, high ones high exposure. As usually defined, the MRT is a mean duration of stay, worked out from the concentration-time curve. As a reminder, the clearance is the rate of elimination divided by the concentration. Read a low clearance as inefficient removal.
